Measured values reported in patent publication US20100143277A1, “Skin Lightening Compositions with Acetylcholinesterase Inhibitors” (priority 2008, published 2010).
Several values for one entry are separate records, joined by “and”; a condition that tells them apart may be missing. Equal entries are not always repeated. Marks after values point to notes of the source that are not given here.

Test system: human epidermal melanocytes from dark human neonatal foreskin (HEMn-DP)
Assay: Quantification of total melanin in cultured melanocytes after 72 hours treatment
Format: cell-based
Details: for Mean mg melanin/100K cells: mean of triplicate; for mg melanin/100K cells: single replicate well, normalized to cell number
Procedure: Monolayer cultures were initiated from cryopreserved cultures of human epidermal melanocytes from dark human neonatal foreskin (HEMn-DP; C-202-5C; Cascade Biologics™), according to the manufacturer's instructions. Cells were cultured in Medium 254 (M-254-500, Cascade Biologics) supplemented with Human Melanocyte Growth Supplement (HMGS; S-0002-5, Cascade Biologics). Stocks of these cultures were generated and stored in Sythn-a-Freeze® cryopreservation media (R-005-50. Cascade Biologics) in liquid nitrogen at passage 2.
For use in assays, cells were thawed according to manufacturer's instructions, and subcultured to increase cell numbers as required. Cells were then plated into 6-well plates at ˜200,000 cells per well and incubated at 37° C., 5% CO2, and were used in assays at passage 4.
Once the melanocytes had adhered to the 6-well plate's (approx. 4-6 hr.), the medium was replaced with Medium 254 containing Human Melanocyte Growth Supplement PMA-free (HMGS-2; S-016-5 hereafter termed depleted media) for approximately 16 hours, or overnight, prior to treatment with the actives.
To develop the screening assay a variety of cell concentrations and incubation times were tested to obtain optimized measurable levels of melanin. During this process no materials were applied to the cells. In addition a standard melanin (M8631, Sigma Aldrich) stock solution was prepared in Solvable™ reagent (5NE9100, Perkin Elmer) to obtain a standard curve for evaluating levels of melanin extracted from cells using a spectrophotometer. Method development was performed to obtain the optimum time required to solubilize the melanin into solution without degradation and a reduction in color.
All stocks of active materials were diluted in DMSO, ethanol or media, before further dilution in depleted media. Treatments were applied to the cells in 6-well plates in triplicate for 72 hours after which time the cells were harvested. Appropriate solvent controls in triplicate were incorporated into each assay.
After 72 hours, media was removed form the cells and the cells were washed once in Dulbecco's PBS. The PBS wash was removed and discarded and care being taken to ensure that all excess PBS was removed as far as possible. 1 mL trypsin-EDTA solution (R-001-100, Cascade Biologicsm) was added and cells incubated at room temperature for ˜1 minute. Microscopic observation was carried out to ensure all cells had detached from the plate. The resulting cell suspension was transferred to a 1.5 mL Eppendorf tube, 50 μL was removed for a cell count (Beckman coulter counter), and the remaining suspension was centrifuged at 13,000 rpm for 5 minutes. The supernatant was discarded and the cell pellets were frozen at −20° C.
The cell pellets were thawed at room temperature, and each pellet was re-suspended in 75 μL Solvable™ reagent (6NE9100, Perkin Elmer). Each tube was vortexed briefly, before incubating in a water bath at 60° C. for 1 hour. After the 1 hour incubation, each tube was vortexed and then centrifuged at 13,000 rpm for 15 minutes. The supernatant containing the extracted melanin was transferred to a 96 well plate and the absorbance at 490 nm recorded on a Dynex MRX-II plate reader.
Each ingredient was tested in triplicate and compared against the relevant vehicle control. The total amount of melanin extracted was calculated from a melanin standard curve. All resultant data was normalized to the total number of the cells in the sample. Data was subjected to the F-test for variance, followed by Student's t-test (assuming equal or unequal variance depending on results of the F-test.

COc1ccc2c3c1O[C@H]1C[C@@H](O)C=C[C@@]31CCN(C)C2 [Galanthamine, galanthamine]
Mean mg melanin/100K cells (0.1 μM): 24.0^e mg melanin/100K cells
mg melanin/100K cells (0.1 μM): 21.2 mg melanin/100K cells and 26.7 mg melanin/100K cells and 23.9 mg melanin/100K cells
Mean mg melanin/100K cells (1 μM): 19.4^d mg melanin/100K cells
mg melanin/100K cells (1 μM): 21.0 mg melanin/100K cells and 18.6 mg melanin/100K cells and 18.5 mg melanin/100K cells
Mean mg melanin/100K cells (10 μM): 23.4^c mg melanin/100K cells
mg melanin/100K cells (10 μM): 23.3 mg melanin/100K cells and 23.7 mg melanin/100K cells and 23.0 mg melanin/100K cells
